A short description of test [1]: inhibitors of firefly luciferase expression or activity, dose response, H4 neuroglioma cells, luminescence (AID 1990). In kind it is functional, cell-based.
A short description of test [2]: luciferase reporter signal reduction – luminescence, H4-C neuroglioblastoma cells, dose response (AID 2458).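 Note: H4 neuroglioblastoma cells stably carrying a luciferase reporter gene fusion.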 It counts as functional, cell-based. In general terms: Reporter assays use an easily measured gene product as a stand-in for the process of interest.
A further test in a line: cells. In kind it is functional, cell-based.
Test [3] can be described thus: Luminescence Cell-Based Dose Response HTS to Identify Inhibitors of 5'UTR Stem-Loop Driven Prion Protein mRNA Translation in H4 Neuroglioblastoma Cells. [Related pubchem assays: 1827 (Project Summary), 1813 (Primary HTS)]. It counts as functional.
Test [4] is described as follows: inhibitors of SNCA 5'UTR-driven reporter translation, confirmation, H4 neuroglioma cells, luminescence (AID 1988). It counts as functional, cell-based.
A short description of test [5]: inhibitors of SNCA 5'UTR-driven translation, confirmation, luminescence, H4 neuroglioblastoma cells, dose confirmation (AID 2454).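 Note: H4 neuroglioblastoma cells carrying an alpha-synuclein 5'UTR luciferase reporter; potency for inhibition of the luciferase signal.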 In kind it is functional, cell-based.
Test [6] has as its target Photoreceptor-specific nuclear receptor (Homo sapiens, UniProt Q9Y5X4). It counts as functional, cell-based.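 Note: CHO-S cells with Gal4-NCOR and VP16-NR2E3 two-hybrid luciferase reporter.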
For the next test, the target named is Cytochrome P450 2D6 (Homo sapiens, UniProt P10635). In words: qHTS Assay for Inhibitors and Substrates of Cytochrome P450 2D6. [Related pubchem assays: 410 ]. In kind it is ADME. The following applies: read-out: Potency. In general terms: qHTS replaces the single test concentration by a dilution series.
Chain of Cytochrome P450 2D6 (P10635 whole entry): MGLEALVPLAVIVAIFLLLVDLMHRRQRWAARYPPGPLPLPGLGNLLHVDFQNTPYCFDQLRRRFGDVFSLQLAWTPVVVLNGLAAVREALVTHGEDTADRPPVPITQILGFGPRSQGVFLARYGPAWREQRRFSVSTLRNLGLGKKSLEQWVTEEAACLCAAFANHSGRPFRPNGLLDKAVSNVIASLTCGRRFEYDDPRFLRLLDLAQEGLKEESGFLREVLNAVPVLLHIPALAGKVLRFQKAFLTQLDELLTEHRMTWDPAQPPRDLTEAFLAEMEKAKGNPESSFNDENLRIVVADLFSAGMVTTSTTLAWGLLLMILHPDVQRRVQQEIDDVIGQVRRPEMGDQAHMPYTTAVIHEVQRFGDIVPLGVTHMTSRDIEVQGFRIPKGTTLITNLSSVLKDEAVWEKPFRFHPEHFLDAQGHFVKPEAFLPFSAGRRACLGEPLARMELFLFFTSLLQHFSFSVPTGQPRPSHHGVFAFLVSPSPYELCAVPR
The next test deals with Cytochrome P450 2C9 (Homo sapiens, UniProt P11712). The following applies: Potency.
Chain of Cytochrome P450 2C9 (P11712 whole entry): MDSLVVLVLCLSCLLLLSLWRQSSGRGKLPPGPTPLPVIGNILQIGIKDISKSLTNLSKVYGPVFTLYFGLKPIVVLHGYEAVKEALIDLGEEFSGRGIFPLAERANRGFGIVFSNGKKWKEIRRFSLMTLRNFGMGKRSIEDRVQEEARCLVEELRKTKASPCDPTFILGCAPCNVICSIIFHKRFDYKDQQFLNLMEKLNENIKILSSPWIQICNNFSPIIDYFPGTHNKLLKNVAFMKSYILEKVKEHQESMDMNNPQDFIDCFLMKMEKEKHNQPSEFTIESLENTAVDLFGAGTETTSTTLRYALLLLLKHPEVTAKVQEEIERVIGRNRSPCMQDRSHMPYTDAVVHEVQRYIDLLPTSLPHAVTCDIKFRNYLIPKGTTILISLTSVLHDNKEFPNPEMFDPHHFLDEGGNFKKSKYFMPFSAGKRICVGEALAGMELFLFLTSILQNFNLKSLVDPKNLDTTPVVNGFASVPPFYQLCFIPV
In test [7] the target is T1, Eukaryotic translation initiation factor 2-alpha kinase 3 (Homo sapiens, UniProt Q9NZJ5). In words: Dose response cell-based high-throughput screening assay to measure PERK inhibition. [Related pubchem assays: 1416 ]. It counts as functional.
T1 sequence (Q9NZJ5 whole entry): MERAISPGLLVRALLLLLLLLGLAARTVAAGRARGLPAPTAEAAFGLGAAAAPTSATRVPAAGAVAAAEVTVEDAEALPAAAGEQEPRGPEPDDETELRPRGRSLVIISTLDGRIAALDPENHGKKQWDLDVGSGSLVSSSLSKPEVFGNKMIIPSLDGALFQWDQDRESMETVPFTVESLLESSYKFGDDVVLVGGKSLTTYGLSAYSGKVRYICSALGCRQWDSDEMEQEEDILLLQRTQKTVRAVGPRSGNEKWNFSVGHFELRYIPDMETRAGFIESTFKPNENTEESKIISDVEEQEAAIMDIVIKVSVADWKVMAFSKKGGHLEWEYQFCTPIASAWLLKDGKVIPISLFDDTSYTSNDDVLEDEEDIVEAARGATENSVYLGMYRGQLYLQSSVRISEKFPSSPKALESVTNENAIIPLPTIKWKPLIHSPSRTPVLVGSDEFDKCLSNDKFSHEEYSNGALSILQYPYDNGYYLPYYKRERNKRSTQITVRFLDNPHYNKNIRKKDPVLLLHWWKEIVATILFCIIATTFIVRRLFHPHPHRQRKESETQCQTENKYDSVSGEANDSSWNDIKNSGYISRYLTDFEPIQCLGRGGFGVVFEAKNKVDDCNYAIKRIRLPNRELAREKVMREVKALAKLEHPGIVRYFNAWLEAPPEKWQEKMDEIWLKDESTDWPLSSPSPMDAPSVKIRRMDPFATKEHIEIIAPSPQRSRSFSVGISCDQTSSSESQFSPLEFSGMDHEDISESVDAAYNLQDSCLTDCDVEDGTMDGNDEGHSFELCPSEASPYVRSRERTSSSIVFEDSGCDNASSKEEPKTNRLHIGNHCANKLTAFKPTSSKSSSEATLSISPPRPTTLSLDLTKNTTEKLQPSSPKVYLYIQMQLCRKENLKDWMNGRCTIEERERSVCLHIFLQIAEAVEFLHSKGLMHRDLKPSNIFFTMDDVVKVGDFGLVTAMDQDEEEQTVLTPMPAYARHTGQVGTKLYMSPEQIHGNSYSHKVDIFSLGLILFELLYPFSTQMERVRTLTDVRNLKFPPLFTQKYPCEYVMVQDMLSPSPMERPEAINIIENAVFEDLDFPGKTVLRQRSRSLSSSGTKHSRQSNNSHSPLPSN
Test [8] deals with T1, Eukaryotic translation initiation factor 2-alpha kinase 3. The experiment in a line: Counterscreen assay for PERK inhibitors: Dose response cell-based high throughput screening assay to measure inhibition of PERK at 6 hours. [Related pubchem assays: 1522, 1416 ]. In kind it is functional.
In another test the test system is HeLa. In words: Cytotoxicity counterscreen assay for transcriptional activators of heat shock protein 70 (Hsp70). [Related pubchem assays: 1203, 1252 ]. The following applies: Homo sapiens. In kind it is functional. (Counterscreens check selectivity or assay interference.);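 note: cells exposed to compound for 16 hours before readout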
The target in the next test is Paired box protein Pax-8 (Homo sapiens, UniProt Q06710). In words: inhibitors of PAX8-driven TPO luciferase reporter, dose response, RMG-I cells, cherry-pick (AID 687027).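 Note: luciferase reporter driven by Pax8 target thyroperoxidase promoter measured by SteadyGlo luminescence.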 It counts as functional, cell-based.
Chain of Paired box protein Pax-8 (Q06710 whole entry): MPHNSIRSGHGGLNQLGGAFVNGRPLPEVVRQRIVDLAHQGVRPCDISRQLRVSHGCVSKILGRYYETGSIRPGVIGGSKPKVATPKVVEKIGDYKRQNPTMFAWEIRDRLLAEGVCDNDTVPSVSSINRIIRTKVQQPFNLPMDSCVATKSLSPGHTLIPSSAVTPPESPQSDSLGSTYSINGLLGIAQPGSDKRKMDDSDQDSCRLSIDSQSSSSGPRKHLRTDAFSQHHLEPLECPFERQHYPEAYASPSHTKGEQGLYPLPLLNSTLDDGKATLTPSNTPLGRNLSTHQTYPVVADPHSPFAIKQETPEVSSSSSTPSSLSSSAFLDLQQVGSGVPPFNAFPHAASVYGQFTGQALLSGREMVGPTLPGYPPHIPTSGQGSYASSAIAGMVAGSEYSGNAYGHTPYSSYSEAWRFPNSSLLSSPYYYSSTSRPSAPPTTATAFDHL
Test [9] can be described thus: inhibitors of CMV-promoter luciferase reporter, dose response, counter-screen for Pax8 inhibitor project, cell-based, HEK293, luminescence, dry powder (AID 743020). In kind it is functional.
The target in test [10] is Acyl-homoserine lactone acylase PvdQ (Pseudomonas aeruginosa (strain LESB58), UniProt Q9I194). The experiment in a line: P. aeruginosa PvdQ acylase inhibitors, dose response, biochemical, fluorescence, plate reader and imaging, cherry-picks (AID 493231).
Chain of Acyl-homoserine lactone acylase PvdQ (Q9I194 24-193 limits assumed): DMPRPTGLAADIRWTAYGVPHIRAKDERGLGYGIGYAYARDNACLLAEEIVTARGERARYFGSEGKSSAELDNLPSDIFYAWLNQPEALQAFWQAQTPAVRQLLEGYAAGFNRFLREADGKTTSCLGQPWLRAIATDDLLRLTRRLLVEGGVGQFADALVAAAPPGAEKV
Chain of Acyl-homoserine lactone acylase PvdQ (Q9I194 217-762 limits assumed): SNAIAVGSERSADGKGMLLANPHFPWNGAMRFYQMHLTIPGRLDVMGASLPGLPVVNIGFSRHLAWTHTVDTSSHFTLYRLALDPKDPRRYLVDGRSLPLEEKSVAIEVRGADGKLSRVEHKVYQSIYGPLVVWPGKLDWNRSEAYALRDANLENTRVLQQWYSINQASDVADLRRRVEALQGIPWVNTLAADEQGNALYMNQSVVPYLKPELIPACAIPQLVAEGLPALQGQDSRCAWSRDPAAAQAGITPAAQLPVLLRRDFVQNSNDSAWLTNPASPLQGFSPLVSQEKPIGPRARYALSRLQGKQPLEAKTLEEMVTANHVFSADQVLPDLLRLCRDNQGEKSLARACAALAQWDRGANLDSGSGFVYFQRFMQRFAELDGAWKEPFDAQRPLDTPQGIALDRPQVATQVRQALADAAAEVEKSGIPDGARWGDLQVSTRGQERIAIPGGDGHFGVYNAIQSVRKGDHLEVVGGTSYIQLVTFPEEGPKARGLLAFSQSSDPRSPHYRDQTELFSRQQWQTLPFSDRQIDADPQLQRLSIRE
A short description of test [11]: inhibition of K1F phage lysis, E. coli UTI89, bacterial capsule biogenesis inhibitors, alamar blue (AID 488966). In kind it is functional.

From ChEMBL document CHEMBL1201862, “PubChem BioAssay data set” (2004) come the findings set out here.

Where “and” joins values, the source holds several entries; their conditions need not be identical. Identical values can stand only once. Calls of active or inactive are those of the source. A value given as a limit tells only on which side of the number the result lay.

Chain of Photoreceptor-specific nuclear receptor (Q9Y5X4 whole entry, the tested form may be a part): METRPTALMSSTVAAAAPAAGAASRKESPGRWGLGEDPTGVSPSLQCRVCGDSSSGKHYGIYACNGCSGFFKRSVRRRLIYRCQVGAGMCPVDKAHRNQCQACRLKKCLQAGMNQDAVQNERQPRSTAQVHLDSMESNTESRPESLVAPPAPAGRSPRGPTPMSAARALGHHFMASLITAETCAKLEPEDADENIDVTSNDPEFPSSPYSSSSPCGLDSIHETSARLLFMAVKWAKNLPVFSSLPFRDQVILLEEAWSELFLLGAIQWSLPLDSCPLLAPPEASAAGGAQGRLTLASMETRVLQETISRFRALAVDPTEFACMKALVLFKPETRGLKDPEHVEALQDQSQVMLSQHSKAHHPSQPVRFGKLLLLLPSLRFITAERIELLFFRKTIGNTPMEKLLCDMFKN

As to `Cc1ccsc1C(=O)OCC(=O)c1cc(C)n(CC2CCCO2)c1C` (stereo unspecified), the EC50 (as a rule, the concentration that produces a half-maximal response) was 8.04 µM (active) in [1]; 900 nM (active) in test [2]; 3.3 µM (active) in the test “cells”; 325 nM (active) in [3]; < 100 nM (active) in test [4]; 322 nM (active) in [5]. Moreover, in test [6], the IC50 (commonly the concentration that gives 50% inhibition) was 6.9 µM (active).

On to `COC(=O)[C@@H]1[C@H]2C[C@H]3c4[nH]c5cc(OC)ccc5c4CCN3C[C@@H]2C[C@@H](OC(=O)c2cc(OC)c(OC)c(OC)c2)[C@@H]1OC`, for which the AC50 on Cytochrome P450 2D6 is 39.8 µM (inconclusive) and 12.6 µM (inconclusive); at Cytochrome P450 2C9, 15.8 µM (inconclusive).

Consider `Cc1cc2c(NC(=O)Nc3ccc(F)cc3)cccc2nn1`, for which the EC50 in [7] and in [8] was > 55.7 µM (not active) each time.

As to `CCCC(=O)N1CCN(c2ccc(NC(=O)c3ccc([N+](=O)[O-])o3)cc2)CC1`, the CC50 (as a rule, the concentration giving 50% cytotoxicity) in the test with HeLa was 6.29 µM (active). Also, the figures for the AC50 (at Paired box protein Pax-8; in [9]) were 5.17 µM (active) and 19.9 µM (active), respectively.

Consider `CCNC(=O)COc1ccc2ccccc2c1`, for which the AC50 in test [10] was 11.7 µM (active).

`Cc1nc(NC(=O)c2ccco2)sc1C(=O)Nc1ccc(Br)cc1`: the IC50 in test [11] is > 75 µM (active).
